Source: PubChem BioAssay (NCI)
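Five compound concentrations were applied to cells in 96-well plates for 48 hours; endpoints were derived by simple linear interpolation of the resulting dose-response curve. TGI denotes the concentration required for complete inhibition of growth.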

Tests used:
Assay in all cases: DTP human tumour cell line panel, 48 h
HCC-2998 colon = tested on: HCC-2998 colon
SK-MEL-2 melanoma = tested on: SK-MEL-2 melanoma
OVCAR-4 ovarian = tested on: OVCAR-4 ovarian
OVCAR-5 ovarian = tested on: OVCAR-5 ovarian
NCI-H23 lung = tested on: NCI-H23 lung
T-47D breast = tested on: T-47D breast
TK-10 renal = tested on: TK-10 renal
MDA-MB-231 breast = tested on: MDA-MB-231 breast
SF-295 CNS = tested on: SF-295 CNS
HCT-15 colon = tested on: HCT-15 colon
IGROV1 ovarian = tested on: IGROV1 ovarian
NCI-H522 lung = tested on: NCI-H522 lung
SF-539 CNS = tested on: SF-539 CNS
SK-MEL-28 melanoma = tested on: SK-MEL-28 melanoma
M14 melanoma = tested on: M14 melanoma
HS 578T breast = tested on: HS 578T breast
U251 CNS = tested on: U251 CNS
SR leukemia = tested on: SR leukemia
UACC-62 melanoma = tested on: UACC-62 melanoma
LOX IMVI melanoma = tested on: LOX IMVI melanoma
A549 NSCLC = tested on: A549 NSCLC
NCI/ADR-RES ovarian = tested on: NCI/ADR-RES ovarian
HT29 colon = tested on: HT29 colon
SN12C renal = tested on: SN12C renal
MALME-3M melanoma = tested on: MALME-3M melanoma
SK-MEL-5 melanoma = tested on: SK-MEL-5 melanoma
SF-268 CNS = tested on: SF-268 CNS
DU-145 prostate = tested on: DU-145 prostate
BT-549 breast = tested on: BT-549 breast
MDA-MB-435 = tested on: MDA-MB-435
HL-60(TB) leukemia = tested on: HL-60(TB) leukemia
MOLT-4 leukemia = tested on: MOLT-4 leukemia
EKVX NSCLC = tested on: EKVX NSCLC
RXF 393 renal = tested on: RXF 393 renal
COLO 205 colon = tested on: COLO 205 colon
PC-3 prostate = tested on: PC-3 prostate
A498 renal = tested on: A498 renal
MDA-N = tested on: MDA-N
K-562 leukemia = tested on: K-562 leukemia
786-0 renal = tested on: 786-0 renal
NCI-H226 lung = tested on: NCI-H226 lung
SNB-75 CNS = tested on: SNB-75 CNS
MCF7 breast = tested on: MCF7 breast
ACHN renal = tested on: ACHN renal
CCRF-CEM leukemia = tested on: CCRF-CEM leukemia
SW-620 colon = tested on: SW-620 colon
UO-31 renal = tested on: UO-31 renal
SNB-19 CNS = tested on: SNB-19 CNS
OVCAR-3 ovarian = tested on: OVCAR-3 ovarian
OVCAR-8 ovarian = tested on: OVCAR-8 ovarian
KM12 colon = tested on: KM12 colon
HOP-62 NSCLC = tested on: HOP-62 NSCLC
CAKI-1 renal = tested on: CAKI-1 renal
RPMI-8226 leukemia = tested on: RPMI-8226 leukemia
HOP-92 NSCLC = tested on: HOP-92 NSCLC
SK-OV-3 ovarian = tested on: SK-OV-3 ovarian
UACC-257 melanoma = tested on: UACC-257 melanoma
NCI-H460 lung = tested on: NCI-H460 lung
HCT-116 colon = tested on: HCT-116 colon

CC1=NC2(CCCCC2)N(Cl)C(=O)C1SC#N (stereo not drawn) was tested, and the TGI (HCC-2998 colon) was 42 µM, the TGI (SK-MEL-2 melanoma) was 48.2 µM and the TGI (OVCAR-4 ovarian) was 46.2 µM. For the same compound, the TGI (OVCAR-5 ovarian) was 38.6 µM, the TGI (NCI-H23 lung) was 58.9 µM and the TGI (T-47D breast) was 62.7 µM. The TGI (TK-10 renal) was 35.1 µM, the TGI (MDA-MB-231 breast) was 36.5 µM and the TGI (SF-295 CNS) was 36.1 µM. It also gave a TGI (HCT-15 colon) of 66.6 µM, a TGI (IGROV1 ovarian) of 34.4 µM and a TGI (NCI-H522 lung) of 38.8 µM. It also gave a TGI (SF-539 CNS) of 35.9 µM, a TGI (SK-MEL-28 melanoma) of 34.9 µM and a TGI (M14 melanoma) of 34.4 µM. For the same compound, the TGI (HS 578T breast) was greater than 100 µM, the TGI (U251 CNS) was 37.4 µM and the TGI (SR leukemia) was greater than 100 µM. For the same compound, the TGI (UACC-62 melanoma) was 27.2 µM, the TGI (LOX IMVI melanoma) was 35.4 µM and the TGI (A549 NSCLC) was 24.8 µM. For the same compound, the TGI (NCI/ADR-RES ovarian) was 56.2 µM, the TGI (HT29 colon) was 46.4 µM and the TGI (SN12C renal) was 36.5 µM. For the same compound, the TGI (MALME-3M melanoma) was 41.9 µM, the TGI (SK-MEL-5 melanoma) was 39.8 µM and the TGI (SF-268 CNS) was 33.5 µM. For the same compound, the TGI (DU-145 prostate) was greater than 100 µM, the TGI (BT-549 breast) was 28.5 µM and the TGI (MDA-MB-435) was 37.7 µM. It also gave a TGI (HL-60(TB) leukemia) greater than 100 µM, a TGI (MOLT-4 leukemia) of 23.7 µM and a TGI (EKVX NSCLC) of 31.9 µM. The TGI (RXF 393 renal) was 32.3 µM, the TGI (COLO 205 colon) was greater than 100 µM and the TGI (PC-3 prostate) was 32.1 µM. It also gave a TGI (A498 renal) greater than 100 µM, a TGI (MDA-N) of 32.2 µM and a TGI (K-562 leukemia) of 41.4 µM. For the same compound, the TGI (786-0 renal) was 31.9 µM, the TGI (NCI-H226 lung) was 40.1 µM and the TGI (SNB-75 CNS) was 44.5 µM. The TGI (MCF7 breast) was 48.9 µM, the TGI (ACHN renal) was 31.6 µM and the TGI (CCRF-CEM leukemia) was 12.8 µM. The TGI (SW-620 colon) was 62.6 µM, the TGI (UO-31 renal) was 32.9 µM and the TGI (SNB-19 CNS) was 49.9 µM. The TGI (OVCAR-3 ovarian) was 35.2 µM, the TGI (OVCAR-8 ovarian) was 32.7 µM and the TGI (KM12 colon) was 42.6 µM. The TGI (HOP-62 NSCLC) was 47.8 µM.
CN(C)c1ccc(/C=N/n2c(-c3ccccc3)nc3ccccc3c2=O)cc1 gave a TGI (HCC-2998 colon) greater than 100 µM, a TGI (SK-MEL-2 melanoma) greater than 100 µM and a TGI (OVCAR-4 ovarian) greater than 100 µM. For the same compound, the TGI (OVCAR-5 ovarian) was greater than 100 µM, the TGI (NCI-H23 lung) was greater than 100 µM and the TGI (T-47D breast) was greater than 100 µM. The TGI (TK-10 renal) was greater than 100 µM, the TGI (MDA-MB-231 breast) was greater than 100 µM and the TGI (SF-295 CNS) was greater than 100 µM. The TGI (HCT-15 colon) was greater than 100 µM, the TGI (IGROV1 ovarian) was greater than 100 µM and the TGI (NCI-H522 lung) was greater than 100 µM. It also gave a TGI (SF-539 CNS) greater than 100 µM, a TGI (SK-MEL-28 melanoma) greater than 100 µM and a TGI (M14 melanoma) greater than 100 µM. For the same compound, the TGI (HS 578T breast) was 92.4 µM, the TGI (U251 CNS) was greater than 100 µM and the TGI (CAKI-1 renal) was greater than 100 µM. The TGI (SR leukemia) was 83.6 µM, the TGI (RPMI-8226 leukemia) was greater than 100 µM and the TGI (UACC-62 melanoma) was greater than 100 µM. For the same compound, the TGI (LOX IMVI melanoma) was greater than 100 µM, the TGI (A549 NSCLC) was greater than 100 µM and the TGI (NCI/ADR-RES ovarian) was greater than 100 µM. The TGI (HOP-92 NSCLC) was greater than 100 µM, the TGI (HT29 colon) was greater than 100 µM and the TGI (SK-OV-3 ovarian) was greater than 100 µM. The TGI (SN12C renal) was greater than 100 µM, the TGI (MALME-3M melanoma) was greater than 100 µM and the TGI (UACC-257 melanoma) was greater than 100 µM. It also gave a TGI (SK-MEL-5 melanoma) greater than 100 µM, a TGI (SF-268 CNS) greater than 100 µM and a TGI (DU-145 prostate) greater than 100 µM. For the same compound, the TGI (NCI-H460 lung) was greater than 100 µM, the TGI (BT-549 breast) was greater than 100 µM and the TGI (MDA-MB-435) was greater than 100 µM. For the same compound, the TGI (HL-60(TB) leukemia) was greater than 100 µM, the TGI (MOLT-4 leukemia) was greater than 100 µM and the TGI (EKVX NSCLC) was greater than 100 µM. The TGI (COLO 205 colon) was greater than 100 µM, the TGI (PC-3 prostate) was greater than 100 µM and the TGI (A498 renal) was greater than 100 µM. It also gave a TGI (MDA-N) greater than 100 µM, a TGI (786-0 renal) greater than 100 µM and a TGI (NCI-H226 lung) greater than 100 µM. For the same compound, the TGI (SNB-75 CNS) was greater than 100 µM, the TGI (MCF7 breast) was greater than 100 µM and the TGI (ACHN renal) was greater than 100 µM. It also gave a TGI (CCRF-CEM leukemia) greater than 100 µM, a TGI (HCT-116 colon) greater than 100 µM and a TGI (SW-620 colon) greater than 100 µM. It also gave a TGI (SNB-19 CNS) greater than 100 µM, a TGI (OVCAR-3 ovarian) greater than 100 µM and a TGI (OVCAR-8 ovarian) greater than 100 µM. The TGI (KM12 colon) was greater than 100 µM and the TGI (HOP-62 NSCLC) was greater than 100 µM.
